# Data as given in US20060229299A1, “5ht2c Receptor antagonists in the treatment of schizophrenia” (priority 2003, published 2006).
# Like-named read-outs stand apart in the source and are kept apart here.
# Experiments:
# [1] = tested on: 5-HT2C receptor relative to 5-HT2A and D2 receptors; assay: Relative 5-HT2C affinity (formula I, sum of 5-HT2C/5-HT2A and 5-HT2C/D2 affinity ratios)
# D2 receptor = D2 receptor (Homo sapiens, UniProt P14416); conditions: Table 3; expressed as pKi or pKd values; known affinities; cited from earlier work
# D2 receptor, sequence (P14416 whole entry): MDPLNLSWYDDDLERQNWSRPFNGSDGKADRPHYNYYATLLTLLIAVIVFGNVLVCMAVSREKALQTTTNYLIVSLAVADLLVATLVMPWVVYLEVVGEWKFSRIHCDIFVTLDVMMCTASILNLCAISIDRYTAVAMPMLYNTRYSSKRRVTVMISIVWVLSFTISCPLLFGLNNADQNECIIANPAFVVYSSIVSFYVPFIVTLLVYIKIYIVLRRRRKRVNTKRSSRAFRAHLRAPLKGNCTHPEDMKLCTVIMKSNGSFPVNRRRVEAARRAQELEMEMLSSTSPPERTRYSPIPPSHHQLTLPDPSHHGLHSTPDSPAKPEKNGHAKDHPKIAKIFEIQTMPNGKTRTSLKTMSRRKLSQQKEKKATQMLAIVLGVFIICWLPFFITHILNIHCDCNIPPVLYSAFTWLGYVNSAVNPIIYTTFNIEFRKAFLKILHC
# 5-HT2A receptor = 5-HT2A receptor (Homo sapiens, UniProt P28223); conditions: Table 3; expressed as pKi or pKd values; known affinities; cited from earlier work
# 5-HT2A receptor, sequence (P28223 whole entry): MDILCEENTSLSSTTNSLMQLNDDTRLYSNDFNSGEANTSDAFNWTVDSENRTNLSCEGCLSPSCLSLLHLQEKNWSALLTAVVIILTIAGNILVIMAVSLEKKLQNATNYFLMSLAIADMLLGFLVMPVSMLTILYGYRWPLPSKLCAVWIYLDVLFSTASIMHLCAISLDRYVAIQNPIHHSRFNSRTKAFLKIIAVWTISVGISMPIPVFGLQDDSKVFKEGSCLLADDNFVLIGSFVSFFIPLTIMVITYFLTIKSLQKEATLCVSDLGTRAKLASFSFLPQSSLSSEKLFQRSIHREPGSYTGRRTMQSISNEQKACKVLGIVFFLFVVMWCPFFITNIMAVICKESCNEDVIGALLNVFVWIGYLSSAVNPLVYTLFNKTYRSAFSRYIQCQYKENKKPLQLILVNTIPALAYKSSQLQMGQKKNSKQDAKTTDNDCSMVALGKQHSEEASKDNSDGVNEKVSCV
# α1-adrenoceptor [2] = conditions: human, expressed as KD; cited from earlier work
# [3] = parameters: key: 1-high; 2-medium; 3-low probability; conditions: Table 4A; grading of probability from literature reports; cited from earlier work
# 5-HT2C receptor [4] = molecular target: T1, 5-HT2C receptor (Homo sapiens, UniProt P28335); conditions: Table 3; expressed as pKi or pKd values; known affinities; cited from earlier work
# T1 sequence (P28335 33-458): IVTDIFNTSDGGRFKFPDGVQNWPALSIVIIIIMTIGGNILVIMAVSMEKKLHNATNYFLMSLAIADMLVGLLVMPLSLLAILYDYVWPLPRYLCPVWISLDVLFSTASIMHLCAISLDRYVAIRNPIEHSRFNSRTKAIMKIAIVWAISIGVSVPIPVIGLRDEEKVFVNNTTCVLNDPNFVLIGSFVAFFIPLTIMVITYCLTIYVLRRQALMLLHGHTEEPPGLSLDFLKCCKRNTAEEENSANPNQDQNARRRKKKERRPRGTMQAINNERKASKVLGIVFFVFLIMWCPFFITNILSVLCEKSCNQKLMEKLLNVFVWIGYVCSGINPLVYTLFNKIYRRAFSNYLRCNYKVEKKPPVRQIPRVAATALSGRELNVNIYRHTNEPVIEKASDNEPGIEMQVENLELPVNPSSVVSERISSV
# α1-adrenoceptor [5] = conditions: species for α1 not given; cited from earlier work
# sigma, σ receptor = conditions: guinea-pig; cited from earlier work
# α2-adrenoceptor = conditions: cited from earlier work
# 5-HT3 receptor = molecular target: T2, 5-HT3 receptor (Mus musculus, UniProt P23979); conditions: cited from earlier work
# T2 sequence (P23979 24-489): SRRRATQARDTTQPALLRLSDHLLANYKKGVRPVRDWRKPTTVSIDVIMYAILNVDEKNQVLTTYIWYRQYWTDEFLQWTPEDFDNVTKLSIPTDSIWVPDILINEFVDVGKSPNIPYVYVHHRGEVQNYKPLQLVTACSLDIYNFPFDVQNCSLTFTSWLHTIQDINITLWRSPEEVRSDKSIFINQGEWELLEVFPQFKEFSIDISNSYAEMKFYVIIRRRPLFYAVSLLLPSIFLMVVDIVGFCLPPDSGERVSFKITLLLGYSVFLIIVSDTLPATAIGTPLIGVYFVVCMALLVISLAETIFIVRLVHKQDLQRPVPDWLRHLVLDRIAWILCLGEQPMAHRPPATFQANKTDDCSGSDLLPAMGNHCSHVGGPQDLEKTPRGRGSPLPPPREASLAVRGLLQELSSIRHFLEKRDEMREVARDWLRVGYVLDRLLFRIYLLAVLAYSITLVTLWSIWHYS
# [6] = molecular target: D2-L (long form of D2 receptor) (Homo sapiens, UniProt P14416); conditions: cited from earlier work
# D2-L (long form of D2 receptor), sequence (P14416 whole entry): as the sequence (P14416 whole entry) above
# 5-HT2C receptor [7] = molecular target: T3, 5-HT2C receptor (Sus scrofa, UniProt K7GSR7); conditions: pig; cited from earlier work
# T3 sequence (K7GSR7 1-457): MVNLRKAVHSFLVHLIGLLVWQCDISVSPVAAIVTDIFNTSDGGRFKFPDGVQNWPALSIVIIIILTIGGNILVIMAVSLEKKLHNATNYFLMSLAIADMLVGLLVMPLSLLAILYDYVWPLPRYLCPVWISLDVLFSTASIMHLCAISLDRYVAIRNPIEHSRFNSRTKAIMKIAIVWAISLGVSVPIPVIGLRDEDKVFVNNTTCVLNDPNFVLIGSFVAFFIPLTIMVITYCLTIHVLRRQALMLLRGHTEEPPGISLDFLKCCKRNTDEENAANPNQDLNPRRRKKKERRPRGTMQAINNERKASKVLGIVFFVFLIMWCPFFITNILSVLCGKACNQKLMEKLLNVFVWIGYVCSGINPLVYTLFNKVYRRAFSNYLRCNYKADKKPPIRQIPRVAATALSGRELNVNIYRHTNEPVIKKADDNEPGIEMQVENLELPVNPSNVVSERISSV
# [8] = molecular target: mACh, muscarinic acetylcholine receptor; conditions: rat; cited from earlier work
# [9] = molecular target: D2-S (short form of D2 receptor) (Homo sapiens, UniProt P14416); conditions: cited from earlier work
# D2-S (short form of D2 receptor), sequence (P14416 1-414 isoform P14416-2): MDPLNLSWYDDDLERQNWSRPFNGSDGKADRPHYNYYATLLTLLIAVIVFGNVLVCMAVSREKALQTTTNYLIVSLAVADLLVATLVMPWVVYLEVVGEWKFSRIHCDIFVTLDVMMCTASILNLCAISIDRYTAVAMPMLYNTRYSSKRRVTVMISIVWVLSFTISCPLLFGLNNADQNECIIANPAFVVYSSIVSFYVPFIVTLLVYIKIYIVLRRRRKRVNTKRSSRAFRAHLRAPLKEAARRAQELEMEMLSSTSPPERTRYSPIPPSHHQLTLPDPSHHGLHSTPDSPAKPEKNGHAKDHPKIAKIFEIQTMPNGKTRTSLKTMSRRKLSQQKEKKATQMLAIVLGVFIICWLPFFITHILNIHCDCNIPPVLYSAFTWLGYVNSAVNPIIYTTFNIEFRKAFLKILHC
# 5-HT7 receptor [10] = molecular target: 5-HT7 receptor (Mus musculus, UniProt P32304); conditions: cited from earlier work
# 5-HT7 receptor (Mus musculus, UniProt P32304), sequence (P32304 whole entry): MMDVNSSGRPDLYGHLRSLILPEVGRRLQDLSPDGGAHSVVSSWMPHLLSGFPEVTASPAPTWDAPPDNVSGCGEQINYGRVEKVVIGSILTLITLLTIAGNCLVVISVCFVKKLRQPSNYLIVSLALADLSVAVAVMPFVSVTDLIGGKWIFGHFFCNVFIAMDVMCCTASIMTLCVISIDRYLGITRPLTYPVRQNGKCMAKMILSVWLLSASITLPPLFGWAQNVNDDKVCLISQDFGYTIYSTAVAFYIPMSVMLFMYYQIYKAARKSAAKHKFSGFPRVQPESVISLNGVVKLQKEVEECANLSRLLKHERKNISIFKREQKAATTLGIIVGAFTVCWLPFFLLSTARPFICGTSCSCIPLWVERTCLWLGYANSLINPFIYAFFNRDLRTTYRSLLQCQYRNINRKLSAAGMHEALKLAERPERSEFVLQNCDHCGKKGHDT
# D4 dopamine receptor = molecular target: T4, D4 dopamine receptor (Homo sapiens, UniProt P21917); conditions: human; cited from earlier work
# T4 sequence (P21917 1-419): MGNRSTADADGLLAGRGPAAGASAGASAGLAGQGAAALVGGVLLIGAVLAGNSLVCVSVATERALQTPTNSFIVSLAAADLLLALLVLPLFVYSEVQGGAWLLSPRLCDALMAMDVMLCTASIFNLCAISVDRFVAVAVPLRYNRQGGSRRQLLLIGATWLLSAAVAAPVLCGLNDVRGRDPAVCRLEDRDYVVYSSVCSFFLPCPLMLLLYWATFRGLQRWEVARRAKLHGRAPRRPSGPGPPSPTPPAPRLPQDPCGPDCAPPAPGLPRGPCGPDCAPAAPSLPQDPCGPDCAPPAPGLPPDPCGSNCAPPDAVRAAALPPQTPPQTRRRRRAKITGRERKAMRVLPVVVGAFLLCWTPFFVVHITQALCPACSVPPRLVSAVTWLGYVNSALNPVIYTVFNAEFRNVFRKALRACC
# 5-HT1A receptor = molecular target: T5, 5-HT1A receptor (Rattus norvegicus, UniProt P19327); conditions: cited from earlier work
# T5 sequence (P19327 1-422): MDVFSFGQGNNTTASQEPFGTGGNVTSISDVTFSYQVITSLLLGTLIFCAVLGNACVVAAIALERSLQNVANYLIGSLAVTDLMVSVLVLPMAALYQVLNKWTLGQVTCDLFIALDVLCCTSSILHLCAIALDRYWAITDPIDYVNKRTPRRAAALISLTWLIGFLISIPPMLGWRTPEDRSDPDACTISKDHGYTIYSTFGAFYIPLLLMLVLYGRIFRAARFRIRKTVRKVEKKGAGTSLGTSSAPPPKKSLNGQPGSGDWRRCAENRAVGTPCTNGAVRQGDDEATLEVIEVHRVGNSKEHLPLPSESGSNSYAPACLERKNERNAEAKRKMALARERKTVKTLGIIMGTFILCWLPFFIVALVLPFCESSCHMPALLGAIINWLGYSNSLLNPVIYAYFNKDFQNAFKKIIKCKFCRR
# [11] = parameters: key to Weight Gain: 1-high; 2-medium; 3-low probability; conditions: cited from earlier work; for Weight Gain: Table 4A, grading of probability from literature reports
# [12] = parameters: key: 1-high; 2-medium; 3-low probability; conditions: Table 4A; grading of probability from literature reports; cited from earlier work; remark: listed apart in the source
# 5-HT7 receptor [13] = molecular target: 5-HT7 receptor (Rattus norvegicus, UniProt P32305); conditions: cited from earlier work
# 5-HT7 receptor (Rattus norvegicus, UniProt P32305), sequence (P32305 whole entry): as the sequence (P32304 whole entry) above, with R27G, S39P, P53L, S279P, C438S counted along it
# D1 dopamine receptor [14] = molecular target: D1 dopamine receptor (Homo sapiens, UniProt P21728); conditions: cited from earlier work
# D1 dopamine receptor (Homo sapiens, UniProt P21728), sequence (P21728 whole entry): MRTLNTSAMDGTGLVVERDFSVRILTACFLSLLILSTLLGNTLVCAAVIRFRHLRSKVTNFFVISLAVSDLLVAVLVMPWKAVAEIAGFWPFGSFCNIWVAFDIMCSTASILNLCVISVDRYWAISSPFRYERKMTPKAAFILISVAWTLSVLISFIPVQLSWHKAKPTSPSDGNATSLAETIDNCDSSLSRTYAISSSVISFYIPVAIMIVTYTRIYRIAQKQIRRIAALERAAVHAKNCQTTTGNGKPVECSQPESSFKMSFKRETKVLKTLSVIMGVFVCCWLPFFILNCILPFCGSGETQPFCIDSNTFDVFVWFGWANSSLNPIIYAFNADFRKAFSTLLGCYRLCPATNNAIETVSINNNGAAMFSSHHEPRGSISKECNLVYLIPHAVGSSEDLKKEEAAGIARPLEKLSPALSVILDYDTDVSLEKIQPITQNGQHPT
# 5-HT6 receptor = 5-HT6 receptor (Rattus norvegicus, UniProt P31388); conditions: cited from earlier work
# 5-HT6 receptor, sequence (P31388 whole entry): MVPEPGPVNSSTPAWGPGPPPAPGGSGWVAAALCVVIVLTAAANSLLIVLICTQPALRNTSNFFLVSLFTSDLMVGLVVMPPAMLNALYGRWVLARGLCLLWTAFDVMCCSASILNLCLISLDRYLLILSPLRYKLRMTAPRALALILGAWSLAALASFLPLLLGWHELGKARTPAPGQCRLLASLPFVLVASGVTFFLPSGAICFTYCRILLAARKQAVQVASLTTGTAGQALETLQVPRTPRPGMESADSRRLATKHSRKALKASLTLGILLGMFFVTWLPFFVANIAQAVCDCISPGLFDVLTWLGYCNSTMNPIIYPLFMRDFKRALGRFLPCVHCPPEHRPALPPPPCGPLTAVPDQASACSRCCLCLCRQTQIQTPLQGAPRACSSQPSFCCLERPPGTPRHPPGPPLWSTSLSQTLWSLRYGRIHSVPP
# α1-adrenoceptor [15] = conditions: rat; cited from earlier work
# D1 dopamine receptor [16] = molecular target: D1 dopamine receptor (Rattus norvegicus, UniProt P18901); conditions: cited from earlier work
# D1 dopamine receptor (Rattus norvegicus, UniProt P18901), sequence (P18901 whole entry): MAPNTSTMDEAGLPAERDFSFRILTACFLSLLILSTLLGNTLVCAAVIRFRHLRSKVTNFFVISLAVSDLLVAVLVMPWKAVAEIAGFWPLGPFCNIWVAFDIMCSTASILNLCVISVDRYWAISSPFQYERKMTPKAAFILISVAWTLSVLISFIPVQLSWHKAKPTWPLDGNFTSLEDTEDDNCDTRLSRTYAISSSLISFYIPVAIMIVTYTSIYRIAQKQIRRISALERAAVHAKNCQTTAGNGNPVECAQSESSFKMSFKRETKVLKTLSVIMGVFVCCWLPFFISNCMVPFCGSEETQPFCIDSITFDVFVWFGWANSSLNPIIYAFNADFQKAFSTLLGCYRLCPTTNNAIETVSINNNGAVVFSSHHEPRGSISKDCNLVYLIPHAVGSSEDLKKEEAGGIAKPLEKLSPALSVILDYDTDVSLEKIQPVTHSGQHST
# [17] = parameters: key: 1-high; 2-medium; 3-low probability; conditions: Table 4A; grading of probability from literature reports; cited from earlier work; remark: listed apart in the source
# [18] = Table 3, calculated from known 5-HT2C/5-HT2A/D2 affinities
compound,measurement,setting,value
"CCCN1CCC[C@H]2c3c(OC)cccc3OC[C@@H]21.Cl (stereo in doubt) [CGS-18102A, 10-methoxy-4-propyl-1,2,3,4a,5,10b-hexahydro-4H-[1]-benzopyrano[3,4-b]pyridine hydrochloride]",Formula I Affinity Ratio,[1]; [18],2.06
same,D2 Affinity,D2 receptor,7.4
same,5-HT2A Affinity,5-HT2A receptor,6.6
CN(C)CCCN1c2ccccc2Sc2ccc(Cl)cc21 [Chlorpromazine],α1 affinity value (−log KD),α1-adrenoceptor [2],8.6^16
CN1CCN(C2=Nc3cc(Cl)ccc3Nc3ccccc32)CC1 [Clozapine],Extra-pyramidal side effects,[3],3
"CN(C)CCO[C@]1(c2ccccc2)C[C@H]2CC[C@]1(C)C2(C)C.O=C(O)/C=C/C(=O)O [Deramciclane, (1R,2S,4R)-(−)-2-[2-(N,N-dimethylamino)-ethoxy]-2-phenyl-1,7,7-trimethylbicyclo[2.2.1]heptane]",Formula I Affinity Ratio,[1]; [18],2.09
same,5-HT2C Affinity,5-HT2C receptor [4],7.8
same,D2 Affinity,D2 receptor,7
same,5-HT2A Affinity,5-HT2A receptor,8
O=C1NCN(c2ccccc2)C12CCN(CCCC(c1ccc(F)cc1)c1ccc(F)cc1)CC2 [Fluspirilene],(2C/2A) + (2C/D2),"[1]; Table 2, sum of affinity ratios from data of Table 1",1.33
same,α1 affinity value (−logKi),α1-adrenoceptor [5],7.0^6
same,sigma affinity value (−logKi),"sigma, σ receptor",6.8^6
same,α2 affinity value (−logKi),α2-adrenoceptor; species for α2 not stated,<5.3^6
same,5-HT3 affinity value (−logKi),5-HT3 receptor,<5.3^6
same,D2-L affinity value (−logKi),[6],9.2^6
same,5-HT2C affinity value (−logKi),5-HT2C receptor [7],5.7^6
same,mACh affinity value (−logKi),[8],<5.3^6
same,D2-S affinity value (−logKi),[9],8.9^6
same,5-HT7 affinity value (−logKi),5-HT7 receptor [10],7.5^6
same,D4 affinity value (−logKi),D4 dopamine receptor,8.4^6
same,5-HT1A affinity value (−logKi),5-HT1A receptor,7.3^6
CN(C)CCSc1nc2ccccc2cc1-c1ccccc1 [ICI-169369],Formula I Affinity Ratio,[1]; [18],2.27
same,5-HT2C Affinity,5-HT2C receptor [4],8
same,D2 Affinity,D2 receptor,6.5
same,5-HT2A Affinity,5-HT2A receptor,7.7
CC(C)N1CCN(CCN2CCC(c3cn(-c4ccc(F)cc4)c4cc(Cl)ccc34)CC2)C1=O [LU-26042],Formula I Affinity Ratio,[1],2.02
same,5-HT2C Affinity,5-HT2C receptor [4],7.8
same,D2 Affinity,D2 receptor,6.9
same,5-HT2A Affinity,5-HT2A receptor,8.8
Cc1cc2c(s1)Nc1ccccc1N=C2N1CCN(C)CC1 [Olanzapine],Weight Gain,[11],2
same,weight gain (in words),"[11]; text b109, literature reports",do cause weight gain
same,Extra-pyramidal side effects,[3],1-2
same,Increases prolactin levels,[12],2
COc1cc(OC)c(C(=O)CCCCN2CCC3(CC2)NC(=O)NC3=O)cc1NS(=O)(=O)c1ccc(C(F)(F)F)cc1 [RS-102221],Formula I Affinity Ratio,[1]; [18],2.78
same,5-HT2C Affinity,5-HT2C receptor [4],8.2
same,5-HT2A Affinity,5-HT2A receptor,5.8
CCN1CCCC1CNC(=O)c1cc(S(N)(=O)=O)ccc1OC (stereo not drawn) [Sulpiride],5-HT7 affinity value (−logKi),5-HT7 receptor [13],<5.3^2
same,D1 affinity value (−logKi),D1 dopamine receptor [14],<5^9
same,5-HT6 affinity value (−logKi),5-HT6 receptor,<5.3^2
CSc1ccc2c(c1)N(CCC1CCCCN1C)c1ccccc1S2 (stereo not drawn) [Thioridazine],D4 affinity value (−logKi),D4 dopamine receptor,7.9^12
O=C1Cc2cc(CCN3CCN(c4nsc5ccccc45)CC3)c(Cl)cc2N1 [Ziprasidone],sigma affinity value (−logKi),"sigma, σ receptor",<5.3^6
same,α2 affinity value (−logKi),α2-adrenoceptor; no reference given,<6
same,5-HT3 affinity value (−logKi),5-HT3 receptor,5.5^6
same,5-HT2C affinity value (−logKi),5-HT2C receptor [7],7.9^6
same,5-HT7 affinity value (−logKi),5-HT7 receptor [13],7.6^14
same,Weight Gain,[11],3
same,5-HT7 affinity value (−logKi),5-HT7 receptor [10],8.3^6
same,Extra-pyramidal side effects,[3],2
same,Increases prolactin levels,[12],3
same,5-HT6 affinity value (−logKi),5-HT6 receptor,6.9^14
same,α1 affinity value (−logKi),α1-adrenoceptor [15],8.0^14
same,D1 affinity value (−logKi),D1 dopamine receptor [16],6.3^14
same,Improvement negative symptoms,[17],2
same,5-HT1A affinity value (−logKi),5-HT1A receptor,7.9^6
